Laboratory results taken from US9688653B2, “Ethoxyphenyl thienyl compounds and methods for the treatment of bacterial infections” (Duke University, priority 2013, dated 2017).

Legend:
[1] = test system: Bladder carcinoma 5637 cells; assay: Cytotoxicity counterscreen, CellTiter Glo, 72 hr; type: cell-based, human
Procedure: B. Counterscreen: Cytotoxicity Screening for Potential Inhibitors of Bacterial Capsule Biogenesis.
Purpose: This cell-based assay measures the cytotoxicity of compounds in bladder carcinoma 5637 cells using luminescent cell viability assay readout.
Cytotoxicity assay: The cytotoxicity assay was performed as described in Section 6: Appendix. Hit cytotoxicity and the 50% toxic concentration (CC50) was determined and compared to the IC50 to calculate the selectivity index.
Assay Description: Cytotoxicity: Dose response testing (dose range=300-0.58 μM) established the hit cytotoxicity data. Compounds were plated in 384-well microplates in a stacked dose response format using the same doses used in the efficacy dose response. Bladder carcinoma 5637 cells were added to the compounds, and 72 hr later cell viability was measured using CellTiter Glo (38). Hit cytotoxicity and the 50% toxic concentration (TC50) was determined and compared to the IC50 to calculate the therapeutic index. Test compounds are serially diluted in a plate to plate matrix or stacked plate matrix. All 320 compounds in a source plate are diluted together resulting in a 10 point dose response dilution series. It is visualized as a serial dilution series proceeding vertically through a stack of plates with the high dose plate on top and the low dose plate on the bottom.
Control Drug: Hyamine was used as a positive cytotoxic control. All wells contained 0.5% DMSO.
Preparation of Bladder carcinoma 5637 cells: Cells are harvested and resuspended to 80,000 cells per ml in Complete DMEM/F12®.
Endpoint Read: Following the three day incubation period, the assay plates were equilibrated to room temperature for 30 min and an equal volume (30 μL) of Cell Titer-Glo® reagent (Promega Inc.) is added to each well using a WellMate™ (Matrix, Hudson, N.H.) and plates are incubated for an additional 10 min at room temperature. At the end of the incubation, luminescence is measured using a Perkin Elmer Envision™ multi-label reader (PerkinElmer, Wellesley, Mass.) with an integration time of 0.1 s.
Cytotoxicity. Testing was performed essentially as previously described. Concentration-response testing was performed over a range 0.58-300 μM in a […] well plate format. Bladder carcinoma 5637 cells (ATCC HTB-9) were added to the compounds, and 72 hrs later cell viability was measured using CellTiter Glo (Promega). The 50% toxic concentration (TC50) was determined and compared to the IC50 to calculate the therapeutic index. Hyamine was used as a positive cytotoxic control. All wells contained 0.5% DMSO.

[2] = test system: E. coli K1 strain UTI89; assay: Secondary assay 2: T7 phage-mediated lysis assay; type: cell-based, Escherichia coli; conditions: read-out: T7 phage IC50
Text: D. Secondary Assay 2: Screening for Inhibitors of Bacterial Capsule Biogenesis—T7 Lysis Inhibition
Purpose: This secondary assay measures the compound mechanistic specificity for inhibition of bacterial capsule formation and excludes inhibitors of phage replication using a different bacteriophage (T7). In this assay, an increase in phage-induced lysis correlates to a decrease in capsule formation.
Purpose: This secondary assay measures the compound mechanistic specificity for inhibition of bacterial capsule formation using a different bacterial phage (T7). In this assay, an increase in phage-induced lysis correlates to a decrease in capsule formation.
Assay Description: T7 phage-mediated lysis assay: This assay determined if the mechanism of action of the compound is inhibition of phage infectivity or replication. The T7 phage has a nearly identical genome to K1F, without encoding an endosialidase. Its cycle of replication is similar to that of K1F as well. However, T7 entry into E. coli is inhibited by K capsules. This secondary assay was conducted in the 96 well plate format. […] Compounds were added in quadruplicate to plates in a concentration dependent manner in the range of 100-0.39 μM, followed by addition of 100 μL of bacterial culture. 1% DMSO (final well concentration) was included. The plates were tape sealed and shaken vigorously for 1.5 hr. An initial OD600 reading was measured to identify compounds that cause growth retardation or bacterial killing in the absence of phage. Next, T7 phage (5 μL) was added to all of the test wells. The plates were resealed and shaken vigorously at 37° C., and measurements of OD600 for phage-mediated lysis were taken after 3 hr. True inhibitors of capsule yielded bacteria that were susceptible to T7 phage and lysed within 2 hr of the addition of phage. […] The positive control drug C7 (100 μM final well concentration) was used in this screen.
T7 phage counter assay. This secondary assay was performed as previously described and was used to distinguish compounds with phage inhibitory effects from true polysaccharide capsule inhibitors. […] Thus, the presence of a capsule inhibits T7-mediated lysis. In this assay, an increase in phage-induced lysis correlates to a decrease in capsule formation. True inhibitors of capsule yielded bacteria that were susceptible to T7 phage and lysed within 2 hr of the addition of phage. […] The positive control molecule C7 (100 μM final well concentration) was used in this screen.

[3] = test system: E. coli K1 strain UTI89; assay: microbe, parasite or virus in culture; conditions: for % Inhibition at 100 μM: HTS primary screen
Text: The ability of the […] to bind to bacterial capsule, infect, and lyse E. coli UT189 was used as the primary assay to identify the effects of screened compounds on bacterial capsule formation. The phenotypic end-point assay measured the fluorescence generated by cellular processing of Alamar Blue as a direct indicator of cell viability. A total of […] compounds were screened using the primary assay. […] Hits were further evaluated using […] secondary assays for alternative measurement of compound-induced reduction in bacterial capsule formation (secondary assays 1 and 2) and specificity (secondary assays 3 and 4). Confirmed actives with an SI>5 were further investigated and subjected to chemical optimization, followed by secondary assay evaluation. Secondary assays more closely characterized the ability of the compounds to reduce bacterial capsule formation and can be used to examine the mechanism of action of the compounds. The combination of primary assay (to measure capsule reduction), counter assay (for general eukaryotic cell toxicity) and secondary assay (to measure reduction in capsule formation and specificity) were combined to allow a determination of probe efficacy, selectivity, and specificity.
A. Primary Assay: Screening for Inhibitors of Bacterial Capsule Biogenesis.
Primary assay: An end-point assay to measure the amount of K1 phage-induced bacterial cell lysis was employed to determine the compound effect on capsule biogenesis. K1 bacteriophage specifically binds the bacterial capsule during the initial stages of infection. Bacteria without capsule cannot be infected and lysed by the bacteriophage. […] A total of 338,740 compounds were screened at 100 μM in the primary screen Inhibition of phage lysis was calculated relative to the mean of the bacterial (positive) control on each microtiter plate. […] For calculation of S/B/Z value, and CV, the following formulae (in which SD stands for standard deviation) were used: S/B=mean signal/mean background; Z=1-3SD of sample+3SD of control mean of sample−mean of control; % CV=(SD mean signal/mean signal)×100.
IC50 values were calculated using a 4 parameter Levenburg-Marquardt algorithm, with the maximum and minimum locked at 0 and 100 respectively.
Primary assay: The primary assay was conducted in the 1,536 well plate format. Bacterial cultures of E. coli K1 strain UTI89 (cystitis isolate) and isogenic capsule mutant strains (as controls for phage infection) were grown and prepared at the screening center immediately prior to use. Overnight starting cultures of UTI89 were grown at 37° C., and inoculated into 1 liter of LB (starting OD600˜0.03), which was sufficient for screening 40 plates (including ˜10% waste) and ˜40,000 compounds as single points.
Control wells contained UTI89 (wt K1) with 0.5% DMSO as a simulated positive control; UTI89 with 0.5% DMSO and tetracycline for a negative growth control; and media plus vehicle control. 50 mL of LB Broth was inoculated with stock 150 μL E. coli UT189 and grown overnight at 37° C. The next day, cultures were diluted 1:75 in 1 L of LB Broth containing 0.5% DMSO. 3 μL of this culture was added to each plate well, and plates were incubated, inverted, at 37° C. for 2 hr. The K1F bacteriophage stock was diluted 1:8 in LB Broth containing 0.5% DMSO, and 1.5 μL of diluted phage (or media only) was added to the pre-plated test compound wells and appropriate control wells. The plates were centrifuged briefly, and then were incubated, inverted, at 37° C. for an additional 2 hr. Afterward, Alamar Blue reagent (Invitrogen, #DAL1100) was diluted 1:2 with LB broth and 1 μL was added to each plate well.

[4] = first round of synthetic analogues, n = 2
[5] = read-out: K1 phage IC50, first round of synthetic analogues, n = 3
[6] = read-out: K1 phage IC50 (inhibition of K1 capsule formation)

O=C(O)c1sc(-c2ccc(OCC(F)(F)F)cc2)cc1NC(=O)c1c(F)cccc1F [compound 56643002]
IC50 [1]: 75.2 µM
IC50 ([2]; second round of synthetic analogues, n = 2): < 0.625 µM
IC50 ([3]; read-out: K1 phage IC50, second round of synthetic analogues, n = 3): 2.86 µM

CC(C)c1ccc(-c2cc(NC(=O)c3ccc(Br)o3)c(C(=O)O)s2)cc1 [compound 53470420]
IC50 [1]: 50.4 µM
IC50 [2, 4]: 1.25 µM
IC50 [3, 5]: 3.08 µM

O=C(Nc1cc(-c2ccc(C(F)(F)F)cc2)sc1C(=O)O)c1cc2ccccc2o1 [compound 53470417]
IC50 [1]: 72.1 µM
IC50 [2, 4]: 7.17 µM
IC50 [3, 5]: > 100 µM

O=C(O)c1sc(-c2ccc(OCCCC(F)(F)F)cc2)cc1NC(=O)c1c(F)cccc1F [CID 56643024]
IC50 [3, 6]: 10.3 µM

CCOc1ccc(-c2cc(NC(=O)c3c(F)cccc3F)c(C(=O)OC)s2)cc1 [CID 16012549]
IC50 [3, 6]: > 100 µM

COC(=O)c1sc(-c2ccc(Cl)cc2)cc1NC(=O)c1ccccc1C(=O)O [compound 2814791]
% Inhibition at 100 μM [3]: −0.17%

COC(=O)c1sc(-c2ccccc2)cc1NC(=O)c1ccccc1 [compound 6710528]
% Inhibition at 100 μM [3]: 4.18%

CCOc1ccc(-c2cc(NC(=O)c3ccc(Br)o3)c(C(=O)O)s2)cc1 [CID 23602086, 3-(5-Bromofuran-2-carboxamido)-5-(4-ethoxyphenyl)thiophene-2-carboxylic acid]
IC50 ([2]; Escherichia coli): < 10 µM
IC50 [3, 6]: 3.42 µM

CCOc1ccc(-c2cc(NC(=O)c3ccc(Br)o3)c(C(=O)O)s2)cc1 [compound 23602086]
IC50 [1]: 68.7 µM
IC50 [2, 4]: < 0.625 µM

CCCCOc1ccc(-c2cc(NC(=O)c3c(F)cccc3F)c(C(=O)O)s2)cc1 [CID 56643007]
IC50 [3, 6]: < 0.78 µM

COC(=O)c1sc(-c2ccccc2)cc1NC(=O)c1ccc(F)cc1 [compound 3669658]
% Inhibition at 100 μM [3]: 2.58%

COc1ccc(-c2cc(NC(=O)c3c(F)cccc3F)c(C(=O)O)s2)cc1 [CID 53470430]
IC50 [3, 6]: > 100 µM

[N-]=[N+]=NCCOc1ccc(-c2cc(NC(=O)c3c(F)cccc3F)c(C(=O)O)s2)cc1 [CID 56643025]
IC50 ([3]; Escherichia coli, read-out: K1 phage IC50 (inhibition of K1 capsule formation)): ~17 µM

CCOc1ccc(-c2cc(NC(=O)c3c(F)cccc3F)c(C(=O)OC)s2)cc1 [compound 16012549]
IC50 [1]: > 300 µM
IC50 ([3]; read-out: K1 phage IC50, purchased analogue series, n = 3): > 100 µM
